Source: ChEMBL document CHEMBL1201862, “PubChem BioAssay data set” (2004)
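Protocol summary: plate cells (96-well), add compound at 5 concentrations, incubate 48 h, interpolate endpoints linearly. GI50 = concentration required for 50% inhibition of growth.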 Activity calls are given as the source filed them. Cut-off read from the data, not from the text of the source: active = GI50 up to about 1.1 µM and inactive = higher.

Legend:
Experiment in all cases: NCI-60 cell line screen, 48 h
NCI-H23 = system: NCI-H23
SN12C = system: SN12C
OVCAR-5 = system: OVCAR-5
BT-549 = system: BT-549
MCF7 = system: MCF7
MDA-MB-435 = system: MDA-MB-435
CAKI-1 = system: CAKI-1
MDA-N = system: MDA-N
DU-145 = system: DU-145
Hs-578T = system: Hs-578T
RPMI-8226 = system: RPMI-8226
IGROV-1 = system: IGROV-1
MDA-MB-231 = system: MDA-MB-231
NCI/ADR-RES = system: NCI/ADR-RES
SK-MEL-2 = system: SK-MEL-2
SR = system: SR
HOP-62 = system: HOP-62

Measured: GI50

Cc1ccc(P(c2ccc(C)cc2)c2ccc(C)cc2)cc1
inactive: NCI-H23 27.9 µM | SN12C 17 µM | OVCAR-5 21.3 µM | BT-549 35.4 µM | MCF7 31.3 µM | MDA-MB-435 19.1 µM | CAKI-1 23.2 µM | MDA-N 21.9 µM | DU-145 16.5 µM | Hs-578T 15.5 µM | RPMI-8226 6.05 µM | IGROV-1 18.8 µM | MDA-MB-231 25.9 µM | NCI/ADR-RES 27.5 µM | SK-MEL-2 22.2 µM

C=C(Br)C(C)(Cl)CCC(Br)C(C)(C)Cl (stereo unspecified)
inactive: NCI-H23 41.9 µM | SN12C 40 µM | SR > 100 µM | OVCAR-5 56.4 µM | BT-549 > 100 µM | MCF7 55.3 µM | MDA-MB-435 28.4 µM | CAKI-1 > 100 µM | HOP-62 41.2 µM | MDA-N 48 µM | DU-145 > 100 µM | Hs-578T 89.7 µM | IGROV-1 77.3 µM | MDA-MB-231 42.3 µM | NCI/ADR-RES 72.1 µM

O=S(=O)(O)Nc1ccc(-c2nc3ccccc3s2)cc1Cl
inactive: NCI-H23 > 100 µM | SN12C > 100 µM | SR > 100 µM | OVCAR-5 16.1 µM | BT-549 > 100 µM | MDA-MB-435 > 100 µM | CAKI-1 > 100 µM | HOP-62 > 100 µM | MDA-N > 100 µM | DU-145 > 100 µM | Hs-578T > 100 µM | RPMI-8226 > 100 µM | IGROV-1 1.67 µM | MDA-MB-231 > 100 µM | NCI/ADR-RES > 100 µM | SK-MEL-2 > 100 µM

COC1CC(OC2CCC3(C)C(=CCC4C3C(OC(C)=O)C(OC(=O)CC(C)C)C3(C)C(C(C)=O)CCC43O)C2)OC(C)C1OC1CC(OC)C(OC2CC(OC)C(OC3OC(C)C(OC4OC(CO)C(O)C(O)C4O)C(OC)C3O)C(C)O2)C(C)O1 (stereo unspecified)
inactive: NCI-H23 > 75 µM | SN12C > 75 µM | OVCAR-5 > 75 µM | BT-549 > 75 µM | MCF7 > 75 µM | MDA-MB-435 > 75 µM | CAKI-1 > 75 µM | HOP-62 11.6 µM | MDA-N > 75 µM | DU-145 > 75 µM | Hs-578T > 75 µM | RPMI-8226 > 75 µM | IGROV-1 > 75 µM | MDA-MB-231 > 75 µM | NCI/ADR-RES > 75 µM | SK-MEL-2 > 75 µM

COc1ccc(-c2c(-c3ccccc3)c(C)nc3[nH]c(=S)[nH]c(=S)c23)cc1OC
inactive: NCI-H23 47.4 µM | SN12C 21.6 µM | OVCAR-5 64.4 µM | BT-549 42.2 µM | MCF7 33.8 µM | MDA-MB-435 26.9 µM | CAKI-1 47 µM | HOP-62 33.1 µM | MDA-N 30.1 µM | DU-145 44.4 µM | Hs-578T 35.6 µM | RPMI-8226 21.6 µM | IGROV-1 36.3 µM | MDA-MB-231 26.9 µM | NCI/ADR-RES 40.4 µM | SK-MEL-2 20.4 µM

CSc1nc(NCc2ccccc2)c2cnn(COCCO)c2n1
inactive: NCI-H23 24.5 µM | SN12C 75 µM | SR 69.7 µM | OVCAR-5 > 100 µM | BT-549 35.7 µM | MCF7 45.3 µM | MDA-MB-435 27.4 µM | CAKI-1 61.9 µM | HOP-62 > 100 µM | MDA-N 46.9 µM | DU-145 64.3 µM | RPMI-8226 38.5 µM | IGROV-1 40.7 µM | MDA-MB-231 55.6 µM | NCI/ADR-RES 53 µM | SK-MEL-2 43.7 µM

COC(=O)C1CCCN1C(=O)OC(C)(C)C (stereo unspecified)
inactive: NCI-H23 > 100 µM | SN12C > 100 µM | SR > 100 µM | OVCAR-5 > 100 µM | BT-549 > 100 µM | MCF7 > 100 µM | MDA-MB-435 > 100 µM | CAKI-1 > 100 µM | HOP-62 > 100 µM | MDA-N > 100 µM | DU-145 > 100 µM | IGROV-1 > 100 µM | MDA-MB-231 > 100 µM | NCI/ADR-RES > 100 µM | SK-MEL-2 > 100 µM

O=C(O)c1cc(Sc2ccc([N+](=O)[O-])c(C(=O)O)c2)ccc1[N+](=O)[O-]
inactive: SN12C > 100 µM | OVCAR-5 > 100 µM | BT-549 > 100 µM | MCF7 > 100 µM | MDA-MB-435 > 100 µM | HOP-62 > 100 µM | MDA-N > 100 µM | DU-145 > 100 µM | Hs-578T > 100 µM | RPMI-8226 > 100 µM | IGROV-1 > 100 µM | MDA-MB-231 > 100 µM | NCI/ADR-RES > 100 µM | SK-MEL-2 > 100 µM

N#Cc1ccsc1Nc1ccccc1[N+](=O)[O-]
inactive: NCI-H23 > 100 µM | SN12C > 100 µM | SR > 100 µM | OVCAR-5 > 100 µM | BT-549 38.5 µM | MCF7 > 100 µM | MDA-MB-435 > 100 µM | CAKI-1 > 100 µM | HOP-62 38.1 µM | MDA-N > 100 µM | DU-145 > 100 µM | RPMI-8226 > 100 µM | IGROV-1 > 100 µM | MDA-MB-231 31.3 µM | NCI/ADR-RES > 100 µM

CCC(CC)C(=O)OC[n+]1ccc(-c2c(COC(=O)NC(C)C)c(COC(=O)NC(C)C)c3n2CCC3)cc1
inactive: NCI-H23 > 100 µM | SN12C > 100 µM | SR 36.7 µM | BT-549 > 100 µM | MCF7 > 100 µM | CAKI-1 > 100 µM | HOP-62 > 100 µM | MDA-N > 100 µM | Hs-578T > 100 µM | RPMI-8226 > 100 µM | IGROV-1 > 100 µM | MDA-MB-231 > 100 µM | NCI/ADR-RES > 100 µM

CCN(CC(=O)O)C(=O)c1cccnc1
inactive: NCI-H23 > 100 µM | SN12C > 100 µM | SR > 100 µM | OVCAR-5 > 100 µM | BT-549 > 100 µM | MDA-MB-435 > 100 µM | CAKI-1 > 100 µM | HOP-62 > 100 µM | MDA-N > 100 µM | DU-145 > 100 µM | Hs-578T > 100 µM | IGROV-1 > 100 µM | MDA-MB-231 > 100 µM | NCI/ADR-RES > 100 µM | SK-MEL-2 > 100 µM

CCC(C)[C@H]1C(=O)N=C(N)N1C(=O)OCc1ccccc1 (stereo partly specified)
inactive: NCI-H23 > 100 µM | SN12C > 100 µM | SR > 100 µM | OVCAR-5 > 100 µM | BT-549 > 100 µM | MCF7 > 100 µM | MDA-MB-435 > 100 µM | CAKI-1 > 100 µM | HOP-62 > 100 µM | MDA-N > 100 µM | DU-145 > 100 µM | RPMI-8226 > 100 µM | IGROV-1 > 100 µM | MDA-MB-231 > 100 µM | NCI/ADR-RES > 100 µM | SK-MEL-2 > 100 µM

COc1ccc2c(c1)CCCN1Cc3cc(OC)c(OC)cc3CC21 (stereo unspecified)
inactive: NCI-H23 > 100 µM | SN12C 89.1 µM | OVCAR-5 > 100 µM | BT-549 > 100 µM | MCF7 > 100 µM | MDA-MB-435 > 100 µM | CAKI-1 > 100 µM | HOP-62 60.4 µM | MDA-N > 100 µM | DU-145 > 100 µM | Hs-578T > 100 µM | IGROV-1 22.1 µM | MDA-MB-231 > 100 µM | NCI/ADR-RES > 100 µM
